Measurements published in patent US20250289799A1, “PYRIMIDINE COMPOUND, METHOD FOR PREPARING SAME, AND PHARMACEUTICAL USE THEREOF” (JIANGSU YAHONG MEDITECH CO., LTD., priority 2022, published 2025).

The compounds below were run against Recombinant human His6-USP1/His6-UAF1 complex protein (Homo sapiens (Human), UniProt O94782) (assay: In vitro , fluorescence detection with Ub-Rho substrate). Settings: not given.
Assay type: biochemical
Protocol: Experimental object: The USP1 […] inhibitory activity of the compounds was screened by fluorescence detection method using 384-well plates.
Experimental materials: Recombinant human His6-USP1/His6-UAF1 complex protein (R&D, Catalog No.: E-568-050), ubiquitin rhodamine 110 protein (Ub-Rho) (R&D, Catalog No.: U-555-050), 384-well plate (Perkin Elmer, Catalog No.: 6007279); all compounds were dissolved in 100% DMSO to obtain a 50 mM stock solution.
• 1) Preparation of 1× assay buffer: 1× assay buffer (modified Tris buffer) was prepared; • 2) Compound dilution: The compound was transferred to the assay plate by Echo. The final concentration of DMSO is 1%; • 3) Preparation of enzyme solution: Recombinant human His6-USP1/His6-UAF1 complex protein was added to 1× assay buffer to obtain an enzyme solution; • 4) Preparation of substrate solution: Ubiquitin rhodamine 110 protein CF (Ub-Rho) was added to 1× assay buffer to obtain a substrate solution; • 5) 10 μL enzyme solution was transferred to the assay plate, and 10 μL 1× assay buffer was added to the control well; • 6) The plate was incubated at room temperature for 1 hour; • 7) 10 μL substrate solution was added to each well to start the reaction, and the plate was centrifuged for 30 seconds, and shaked for 30 seconds; • 8) The plate was read with Envision after 30 minutes, and the parameters were excitation light 480 nm and emission light 540 nm; • 9) The data was collected and summarized; • 10) Curve fitting: The data was fitted in Excel, Inhibition rate formula: Percent inhibition rate=(maximum value−signal value)/(maximum value−minimum value)×100; the data was fitted in XL-Fit, • Half inhibition concentration formula: Percent inhibition rate=minimum concentration+(maximum concentration−minimum concentration)/(1+(half inhibition concentration/compound concentration)^slope); • Half inhibition concentration is referred to as IC50 hereinafter.

Recombinant human His6-USP1/His6-UAF1 complex protein, sequence (O94782 whole entry): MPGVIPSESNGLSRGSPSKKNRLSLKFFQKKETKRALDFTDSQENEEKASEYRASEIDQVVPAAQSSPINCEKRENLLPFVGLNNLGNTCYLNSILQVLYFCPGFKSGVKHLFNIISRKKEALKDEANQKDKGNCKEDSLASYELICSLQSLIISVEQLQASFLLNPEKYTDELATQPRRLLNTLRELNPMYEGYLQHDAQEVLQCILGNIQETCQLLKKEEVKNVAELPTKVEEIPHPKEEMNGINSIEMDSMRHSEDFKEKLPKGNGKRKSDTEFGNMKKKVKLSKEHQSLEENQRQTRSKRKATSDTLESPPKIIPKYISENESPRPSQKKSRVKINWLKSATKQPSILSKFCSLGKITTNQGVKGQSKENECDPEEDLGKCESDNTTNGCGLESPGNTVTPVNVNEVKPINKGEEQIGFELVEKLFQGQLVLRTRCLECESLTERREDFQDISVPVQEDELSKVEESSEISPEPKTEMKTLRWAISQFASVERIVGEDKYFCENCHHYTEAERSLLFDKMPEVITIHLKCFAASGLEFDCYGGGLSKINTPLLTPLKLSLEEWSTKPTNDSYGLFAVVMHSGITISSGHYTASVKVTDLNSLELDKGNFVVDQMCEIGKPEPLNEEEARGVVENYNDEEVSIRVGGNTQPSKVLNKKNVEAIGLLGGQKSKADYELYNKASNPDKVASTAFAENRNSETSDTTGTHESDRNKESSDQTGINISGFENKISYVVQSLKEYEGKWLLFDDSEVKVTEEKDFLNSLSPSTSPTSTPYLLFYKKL
Recombinant human His6-USP1/His6-UAF1 complex protein, sequence (Q8TAF3 whole entry partner): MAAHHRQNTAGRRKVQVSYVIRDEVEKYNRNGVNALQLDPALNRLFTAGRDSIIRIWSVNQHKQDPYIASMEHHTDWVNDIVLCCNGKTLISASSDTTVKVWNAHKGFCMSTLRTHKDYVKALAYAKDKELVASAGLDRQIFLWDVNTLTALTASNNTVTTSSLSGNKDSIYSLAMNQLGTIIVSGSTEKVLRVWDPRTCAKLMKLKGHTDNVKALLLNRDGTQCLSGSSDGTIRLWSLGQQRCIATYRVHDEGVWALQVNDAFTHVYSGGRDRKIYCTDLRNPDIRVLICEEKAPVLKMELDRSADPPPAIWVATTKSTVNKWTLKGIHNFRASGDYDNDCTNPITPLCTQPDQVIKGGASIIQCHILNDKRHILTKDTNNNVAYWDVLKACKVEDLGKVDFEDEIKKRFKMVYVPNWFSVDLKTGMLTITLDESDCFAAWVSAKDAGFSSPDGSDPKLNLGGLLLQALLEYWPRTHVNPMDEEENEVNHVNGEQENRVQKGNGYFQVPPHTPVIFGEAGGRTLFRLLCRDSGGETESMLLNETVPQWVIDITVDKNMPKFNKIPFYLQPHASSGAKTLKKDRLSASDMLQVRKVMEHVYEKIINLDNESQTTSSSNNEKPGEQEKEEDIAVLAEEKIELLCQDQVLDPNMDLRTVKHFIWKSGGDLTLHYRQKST

Row | IC50 [nM] | SMILES
1 | 1.9 | CC(C)c1ccccc1-c1ncc2c(n1)N(C[C@H]1CC[C@H](c3nc(C(F)(F)F)cn3C)CC1)CCO2 [Compound 13, 2-(2-Isopropylphenyl)-8-(((1R,4R)-4-(1-methyl-4-(trifluoromethyl)-1H-imidazol-2-yl)cyclohexyl)methyl)-7,8-dihydro-6H-pyrimido[5,4-b][1,4]oxazine]
2 | 60 | CC(C)c1ccccc1-c1ncc2c(n1)N(C[C@H]1CC[C@@H](c3nc(C(F)(F)F)cn3C)CC1)CCO2 [Compound 14, 2-(2-Isopropylphenyl)-8-(((1s,4s)-4-(1-methyl-4-(trifluoromethyl)-1H-imidazol-2-yl)cyclohexyl)methyl)-7,8-dihydro-6H-pyrimido[5,4-b][1,4]oxazine]
3 | 1050 | COc1cnc(-c2c(C)ncn2C(C)C)nc1NCC12CCC(c3ccc(C(F)(F)F)cn3)(CC1)CC2 [Example 148, 2-(1-Isopropyl-4-methyl-1H-imidazol-5-yl)-5-methoxy-N-((4-(5-(trifluoromethyl)pyridin-2-yl)bicyclo[2.2.2]octan-1-yl)methyl)pyrimidin-4-amine]
4 | 6.9 | COc1ncnc(C2CC2)c1-c1nc(NCc2ccc(-c3ccccn3)cc2)c2occc2n1 [Example 34, 2-(4-Cyclopropyl-6-methoxypyrimidin-5-y1)-N-(4-(pyridin-2-yl)benzyl)furo[3,2-d]pyrimidin-4-amine]

Row | SMILES | IC50 [nM]
5 | COc1cnc(-c2c(OC)ncnc2C2CC2)nc1NCC12C3C4C1C1C2C3C41c1nc(C(F)(F)F)cn1C (centres unmarked) [Example 215] | 2.2

Each compound was assayed on MDA-MB-436 (assay: CTG experiment on cell activity (CellTiter-Glo, 7 days)). Settings: Homo sapiens, 168 h, MDA-MB-436 cells, cultured for 7 days.
Assay type: cell-based
Protocol: • 1. Object: USP1 inhibitors were screened on 96-well plate by CTG assay. • 2. Materials: • The cells used were MDA-MB-436 (manufacturer: Nanjing Cobioer Biotechnology Co., Ltd.), and the culture medium was DMEM. • CTG (CellTiter-Glo® Luminescent Cell Viability Assay kit) (Promega, Catalog No.: G7572) • 96-well plate (Corning, Catalog No.: 3610) • 3. Compounds: • All compounds were dissolved in 100% DMSO to obtain 50 mM stock solutions. • 4. Experimental methods:
The cells to be tested were spread into a 96-well plate at a certain density at 200 μL per well, and 200 μL of cell culture medium was added to the blank well. The spread cell plate was placed in a 37° C. incubator.
The compound was diluted to different concentrations with 100% DMSO, and the final concentration of DMSO was 4%.
The compound formulated in (2) was added to the cell plate of (1) (10 μL per well). The cell plate with the compound added was placed in a 37° C. incubator, and cultured for 7 days before assay.
The substrate and buffer of the CTG kit were mixed evenly. The cell plate with the compound added in (3) was taken out from the incubator, and placed at room temperature for 30 minutes. The compound-containing culture medium in the cell plate was removed, 100 μL of PBS and 50 μL of CTG reagent were added to each well. The mixture in each well was mixed and shaked for 3 minutes, and then incubated at room temperature for 10 minutes. The plate was read by BIotek microplate reader, and the parameter was 567 CPM. • 5. Curve fitting • Same as enzyme assay.

Row | IC50 [nM] | SMILES
6 | 1170 | COc1cnc(-c2ccccc2C(C)C)nc1NCc1ccc(OCc2ccccn2)cc1 [Example 67, 2-(2-Isopropylphenyl)-5-methoxy-N-(4-(pyridin-2-ylmethoxy)benzyl)pyrimidin-4-amine]
7 | 1800 | CC(C)c1ccccc1-c1nc(NCc2ccc3c(c2)CCN(C)C3=O)c2occc2n1 [Example 77, 6-(((2-(2-Isopropylphenyl)furo[3,2-d]pyrimidin-4-yl)amino)methyl)-2-methyl-3,4-dihydroisoquinolin-1(2H)-one]
8 | 2 | COc1cnc(-c2ccccc2C(C)C)nc1NCC1CCC(c2nc(C(F)(F)F)cn2C)CC1 [Compound 6, 2-(2-Isopropylphenyl)-5-methoxy-N-(((1R,4R)-4-(1-methyl-4-(trifluoromethyl)-1H-imidazol-2-yl)cyclohexyl)methyl)pyrimidin-4-amine]
9 | > 5000 | COc1ncnc(C2CC2)c1-c1nc(NCc2ccc3c(c2)CCN(C)C3=O)c2occc2n1 [Example 114, 6-(((2-(4-Cyclopropyl-6-methoxypyrimidin-5-yl)furo[3,2-d]pyrimidin-4-yl)amino)methyl)-2-methyl-3,4-dihydroisoquinolin-1(2H)-one]
10 | 1210 | CCOCCOc1ccc(CNc2nc(-c3ccccc3C(C)C)nc3ccoc23)cc1 [Example 79, N-(4-(2-Ethoxyethoxy)benzyl)-2-(2-isopropylphenyl)furo[3,2-d]pyrimidin-4-amine]
11 | > 5000 | COc1ncnc(C2CC2)c1-c1ncc(OC(C)C)c(NCC23CCC(c4ccc(C(F)(F)F)cn4)(CC2)CC3)n1 [Example 112, 4′-Cyclopropyl-5-isopropoxy-6′-methoxy-N-((4-(5-(trifluoromethyl)pyridin-2-yl)bicyclo[2.2.2]octan-1-yl)methyl)-[2,5′-bipyrimidin]-4-amine]
12 | > 5000 | CC(C)c1ccccc1-c1nc(NCc2ccc3c(c2)CCN(C(C)C)C3=O)c2occc2n1 [Example 78, 2-Isopropyl-6-(((2-(2-isopropylphenyl)furo[3,2-d]pyrimidin-4-yl)amino)methyl)-3,4-dihydroisoquinolin-1(2H)-one]
13 | 1440 | COc1cnc(-c2cccc3ccn(C)c23)nc1NCc1ccc(-c2nc(C(F)(F)F)cn2C)cc1 [Example 143, 5-Methoxy-2-(1-methyl-1H-indol-7-yl)-N-(4-(1-methyl-4-(trifluoromethyl)-1H-imidazol-2-yl)benzyl)pyrimidin-4-amine]
14 | 1270 | COc1cnc(-c2ccccc2C(C)C)nc1N(C)Cc1ccc(-c2ccccn2)cc1 [Compound 1, 2-(2-isopropylphenyl)-5-methoxy-N-methyl-N-(4-(pyridin-2-yl)benzyl)pyrimidin-4-amine]
15 | 1670 | COc1cnc(-c2cccc3ccn(C)c23)nc1NCc1ccc(-n2nc(C(F)(F)F)cc2C)cc1 [Example 144, 5-Methoxy-2-(1-methyl-1H-indol-7-yl)-N-(4-(5-methyl-3-(trifluoromethyl)-1H-pyrazol-1-yl)benzyl)pyrimidin-4-amine]
16 | > 5000 | COc1ncnc(C2CC2)c1-c1nc(NCc2ccc(-c3ccccn3)cc2)c2[nH]ccc2n1 [Example 37, 2-(4-Cyclopropyl-6-methoxypyrimidin-5-yl)-N-(4-(pyridin-2-yl)benzyl)-5H-pyrrolo[3,2-d]pyrimidin-4-amine]
17 | 1060 | COc1cnc(-c2cccc3c2N(C)CC3)nc1NCc1ccc(-n2ncc(C(F)(F)F)c2C)cc1 [Example 146, 5-Methoxy-N-(4-(5-methyl-4-(trifluoromethyl)-1H-pyrazol-1-yl)benzyl)-2-(1-methylindolin-7-yl)pyrimidin-4-amine]
18 | 209 | COc1ncnc(C2CC2)c1-c1ncc2c(n1)N(CC1CCC(c3nc(C(F)(F)F)cn3C)CC1)CCO2 (centres unmarked) [Compound 22, 2-(4-Cyclopropyl-6-methoxypyrimidin-5-y1)-8-(((1r,4r)-4-(1-methyl-4-(trifluoromethyl)-1H-imidazol-2-yl)cyclohexyl)methyl)-7,8-dihydro-6H-pyrimido[5,4-b][1,4]oxazine]
19 | 2650 | CC(C)c1ccccc1-c1ncc(N2CCOCC2)c(NCc2ccc(-c3nc(C(F)(F)F)cn3C)cc2)n1 [Example 87, 2-(2-Isopropylphenyl)-N-(4-(1-methyl-4-(trifluoromethyl)-1H-imidazol-2-yl)benzyl)-5-morpholinopyrimidin-4-amine]
20 | 1610 | COc1ncnc(C2CC2)c1-c1nc(NCc2ccc3c(c2)CCN(C(C)C)C3=O)c2occc2n1 [Example 115, 6-(((2-(4-Cyclopropyl-6-methoxypyrimidin-5-yl)furo[3,2-d]pyrimidin-4-yl)amino)methyl)-2-isopropyl-3,4-dihydroisoquinolin-1(2H)-one]

Row | SMILES | IC50 [nM]
21 | COc1ncnc(C2CC2)c1-c1nc(NCc2ccc(OC3CC(OC)C3)cc2)c2occc2n1 (centres unmarked) [Example 118, 2-(4-Cyclopropyl-6-methoxypyrimidin-5-yl)-N-(4-(3-methoxycyclobutoxy)benzyl)furo[3,2-d]pyrimidin-4-amine] | 1490
22 | COC1CC(Oc2ccc(CNc3nc(-c4ccccc4C(C)C)nc4ccoc34)cc2)C1 (centres unmarked) [Example 80, 2-(2-Isopropylphenyl)-N-(4-(3-methoxycyclobutoxy)benzyl)furo[3,2-d]pyrimidin-4-amine] | > 5000

Same assay, conditions: MDA-MB-436 cells, cultured for 7 days

Row | SMILES | IC50 [nM]
23 | COc1cnc(-c2c(OC)ncnc2C2CC2)nc1NCC12C3C4C1C1C2C3C41c1nc(C(F)(F)F)cn1C (centres unmarked) [Example 215] | 8.7
